Data reported in US10501518B2 (priority 2013, dated 2019).
Read-outs that look alike come from different tables or passages of the source. Non-standard residues stand in square brackets, D forms with d. Residues, ends and D or L forms follow the SMILES beside them. β3hW = N[C@H](CC(=O)O)Cc1c[nH]c2ccccc12; β3hE = N[C@@H](CCC(=O)O)CC(=O)O; β3hF = N[C@H](CC(=O)O)Cc1ccccc1; β3hN = NC(=O)C[C@H](N)CC(=O)O; β3hK = NCCCC[C@H](N)CC(=O)O; β3hM = CSCC[C@H](N)CC(=O)O; β3hD = NC(CC(=O)O)CC(=O)O

Experiments:
RG form of human PTHR-1 = target: T1, RG form of human PTHR-1 (Homo sapiens, UniProt Q03431); experiment: Radio-ligand competition binding to RG form of human PTHR-1 (COS-7 membranes, 125I-M-PTH(1-15) tracer, high affinity Gαs mutant)
T1 construct: expressed in transfected cells; host or cells: COS-7
T1 sequence (Q03431 27-593): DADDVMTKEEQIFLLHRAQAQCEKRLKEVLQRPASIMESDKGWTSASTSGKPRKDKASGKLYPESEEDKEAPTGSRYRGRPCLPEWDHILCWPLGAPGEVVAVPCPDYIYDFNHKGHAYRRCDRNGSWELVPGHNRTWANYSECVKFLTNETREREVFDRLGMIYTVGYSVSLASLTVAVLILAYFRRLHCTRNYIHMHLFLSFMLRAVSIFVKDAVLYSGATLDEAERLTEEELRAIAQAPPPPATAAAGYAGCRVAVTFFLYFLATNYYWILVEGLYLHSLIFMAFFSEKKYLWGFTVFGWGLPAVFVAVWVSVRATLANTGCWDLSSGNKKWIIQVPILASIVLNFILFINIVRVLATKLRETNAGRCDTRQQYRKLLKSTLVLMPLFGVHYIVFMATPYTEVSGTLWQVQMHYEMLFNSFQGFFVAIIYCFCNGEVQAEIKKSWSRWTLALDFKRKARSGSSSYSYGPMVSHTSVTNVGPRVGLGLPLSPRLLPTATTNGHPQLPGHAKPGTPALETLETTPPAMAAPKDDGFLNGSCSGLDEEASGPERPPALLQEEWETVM
Source text: (§1) Data are means (±SEM) of n≥4 experiments, each performed in duplicate.

WT rat PTHR-1 = target: T2, WT rat PTHR-1 (Rattus norvegicus, UniProt P25961); experiment: cAMP GloSensor dose-response in GR-35 cells expressing rat PTHR-1; type: cell-based; conditions: Table 7; for Max: 12-16 minutes after ligand addition, mean ± SEM
T2 construct: expressed in transfected cells
T2 sequence (P25961 27-591): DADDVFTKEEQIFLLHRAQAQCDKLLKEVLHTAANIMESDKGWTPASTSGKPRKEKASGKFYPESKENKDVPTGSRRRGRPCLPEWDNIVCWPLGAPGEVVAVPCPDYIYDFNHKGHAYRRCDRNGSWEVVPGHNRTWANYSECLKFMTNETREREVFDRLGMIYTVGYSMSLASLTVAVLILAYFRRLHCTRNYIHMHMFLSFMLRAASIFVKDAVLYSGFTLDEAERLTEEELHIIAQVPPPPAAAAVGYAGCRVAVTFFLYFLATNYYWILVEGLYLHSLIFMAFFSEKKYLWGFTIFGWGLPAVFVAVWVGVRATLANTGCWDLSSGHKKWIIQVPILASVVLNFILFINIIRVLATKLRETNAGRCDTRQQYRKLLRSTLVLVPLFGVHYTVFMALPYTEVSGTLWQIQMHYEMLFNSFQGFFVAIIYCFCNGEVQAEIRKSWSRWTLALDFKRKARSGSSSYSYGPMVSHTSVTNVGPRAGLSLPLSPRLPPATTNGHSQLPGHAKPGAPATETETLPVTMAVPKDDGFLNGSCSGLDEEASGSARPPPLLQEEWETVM
Description: FIGS. 9A, 9B, and 9C constitute a series of graphs depicting cAMP responses in GR-35 cells expressing rat PTHR-1-WT. […] Data are means (±SEM) of n>4 experiments, each performed in duplicate.
For cAMP dose-response assays, monolayers of confluent HEK 293 cells were pre-incubated with buffer containing d-luciferin (0.5 mM) in 96 well plates at room temperature until a stable baseline level of luminescence was established (30 min). Varying concentrations of agonist were then added, and the time course of luminescence response was recorded using a Perkin Elmer plate reader following α/β-peptide addition.

WT human PTHR-1 = target: T3, WT human PTHR-1 (Homo sapiens, UniProt Q03431); experiment: cAMP GloSensor dose-response in GP-2.3 cells expressing human PTHR-1; type: cell-based; conditions: for cAMP (hPTHR-1) Max: luminescence counts per second relative to PTH(1-34); for cAMP (hPTHR-1) Max / Max: 12-16 minutes after ligand addition; for Max: mean ± SEM
T3 construct: bioactivity of the resulting compound in full-length hPTHR-1 and a truncated version; expressed in transfected cells
T3 sequence (Q03431 27-593): T1 sequence (Q03431 27-593)
In short: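 Confluent cells preloaded with 0.5 mM d-luciferin at room temperature until luminescence baseline stabilised (30 min), then given varying agonist concentrations. Luminescence time course recorded after α/β-peptide addition. Means ±SEM of n>4 experiments, each in duplicate.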

R^0 form of human PTHR-1 = target: T4, R^0 form of human PTHR-1 (Homo sapiens, UniProt Q03431); experiment: Radio-ligand competition binding to R^0 form of human PTHR-1 (COS-7 membranes, 125I-PTH(1-34) tracer, GTPγS)
T4 construct: expressed in transfected cells; host or cells: COS-7
T4 sequence (Q03431 27-593): T1 sequence (Q03431 27-593)
Source text: as §1

RG form of rat PTHR-1 = target: T5, RG form of rat PTHR-1 (Rattus norvegicus, UniProt P25961); experiment: Radio-ligand competition binding to RG form of rat PTHR-1; conditions: Table 5; rat PTHR-1; mean ± SEM; read-out: RG -log (IC50) (converted)
T5 construct: expressed in transfected cells; host or cells: COS-7
T5 sequence (P25961 27-591): T2 sequence (P25961 27-591)
Source text: as §1

R^0 form of rat PTHR-1 = target: T6, R^0 form of rat PTHR-1 (Rattus norvegicus, UniProt P25961); experiment: Radio-ligand competition binding to R^0 form of rat PTHR-1; conditions: Table 5; ratio of R^0 to RG IC50, rat PTHR-1
T6 construct: expressed in transfected cells; host or cells: COS-7
T6 sequence (P25961 27-591): T2 sequence (P25961 27-591)
Source text: as §1

Row | IC50 (RG form of human PTHR-1; Table 1, 125I-M-PTH(1-15) tracer, Gαs mutant, read-out: RG IC50, nM, Binding (hPTHR-1)) [nM] | EC50 (WT human PTHR-1; Table 1, GP-2.3 cells, read-out: cAMP (hPTHR-1) EC50) [nM] | Structure (SMILES) | IC50 (RG form of human PTHR-1) [nM] | IC50 (RG form of human PTHR-1; Table 4, human PTHR-1, mean ± SEM, read-out: RG -log (IC50) (converted)) [nM] | Fold nM PTH(1-34) (WT rat PTHR-1; EC50 relative to PTH(1-34)) | Max (WT rat PTHR-1; GR-35 cells) | EC50 (WT rat PTHR-1; GR-35 cells, read-out: EC50) [nM] | EC50 (WT human PTHR-1) [nM] | cAMP (hPTHR-1) Max (WT human PTHR-1; Table 1) | Fold nM PTH(1-34) (WT human PTHR-1; Table 6, EC50 relative to PTH(1-34)) | Max (WT human PTHR-1; Table 6, GP-2.3 cells) | IC50 (R^0 form of human PTHR-1) [nM] | R^0/RG (R^0 form of human PTHR-1; Table 4, ratio of R^0 to RG IC50, human PTHR-1) | IC50 (RG form of rat PTHR-1) [nM] | R^0/RG (R^0 form of rat PTHR-1)
1 | – | – | CC[C@H](C)[C@H](NC(=O)[C@H](CCC(=O)O)NC(=O)[C@H](CO)NC(=O)[C@@H](NC(=O)[C@@H](N)CO)C(C)C)C(=O)N[C@@H](CCC(N)=O)C(=O)N[C@@H](CC(C)C)C(=O)N[C@@H](CCSC)C(=O)N[C@@H](Cc1c[nH]cn1)C(=O)N[C@@H](CC(N)=O)CC(=O)N[C@@H](CC(C)C)C(=O)NCC(=O)N[C@@H](CCCCN)C(=O)N[C@H](CC(=O)N[C@@H](CC(C)C)C(=O)N[C@@H](CC(N)=O)C(=O)N[C@@H](CO)C(=O)N[C@@H](CCSC)CC(=O)N[C@@H](CCC(=O)O)C(=O)N[C@@H](CCCNC(=N)N)C(=O)N[C@H](C(=O)N[C@@H](CCC(=O)O)CC(=O)N[C@@H](Cc1c[nH]c2ccccc12)C(=O)N[C@@H](CC(C)C)C(=O)N[C@@H](CCCNC(=N)N)C(=O)N[C@@H](CCCCN)CC(=O)N[C@@H](CCCCN)C(=O)N[C@@H](CC(C)C)C(=O)N[C@@H](CCC(N)=O)C(=O)N[C@@H](CC(=O)O)CC(=O)N[C@H](C(=O)N[C@@H](Cc1c[nH]cn1)C(=O)N[C@@H](CC(N)=O)C(=O)N[C@H](CC(N)=O)Cc1ccccc1)C(C)C)C(C)C)Cc1c[nH]c2ccccc12 [D7] (H-SVSEIQLMH[β3hN]LGK[β3hW]LNS[β3hM]ERV[β3hE]WLR[β3hK]KLQ[β3hD]VHN[β3hF]-NH2) | 0.24 | 0.234 | 3.89 | 40 ± 18 luminescence counts per second × 10−3 | 1.62 | 0.39 | 0.85 | 2.26 | 184 ± 18 luminescence counts per second × 10^−3 | 3.5 | 15 | 2.04 | 7
2 | 0.4 | 0.2 | CC[C@H](C)[C@H](NC(=O)[C@H](CCC(=O)O)NC(=O)[C@H](CO)NC(=O)[C@@H](NC(=O)[C@@H](N)CO)C(C)C)C(=O)N[C@@H](CCC(N)=O)C(=O)N[C@@H](CC(C)C)C(=O)N[C@@H](CCSC)C(=O)N[C@@H](Cc1c[nH]cn1)C(=O)N[C@@H](CC(N)=O)C(=O)N[C@@H](CC(C)C)C(=O)NCC(=O)N[C@@H](CCCCN)C(=O)N[C@@H](Cc1c[nH]cn1)C(=O)N[C@@H](CC(C)C)C(=O)N[C@@H](CC(N)=O)C(=O)N[C@@H](CO)CC(=O)N[C@@H](CCSC)C(=O)N[C@@H](CCC(=O)O)C(=O)N[C@@H](CCCNC(=N)N)C(=O)N[C@H](CC(=O)N[C@@H](CCC(=O)O)C(=O)N[C@@H](Cc1c[nH]c2ccccc12)C(=O)N[C@@H](CC(C)C)C(=O)N[C@@H](CCCNC(=N)N)CC(=O)N[C@@H](CCCCN)C(=O)N[C@@H](CCCCN)C(=O)N[C@@H](CC(C)C)C(=O)N[C@@H](CCC(N)=O)CC(=O)N[C@@H](CC(=O)O)C(=O)N[C@H](C(=O)N[C@@H](Cc1c[nH]cn1)C(=O)N[C@@H](CC(N)=O)CC(=O)N[C@@H](Cc1ccccc1)C(N)=O)C(C)C)C(C)C [C5] | – | – | – | 48 ± 17 luminescence counts per second × 10−3 | – | – | 1.01 | – | 219 ± 39 luminescence counts per second × 10^−3 | – | – | – | –
